Like-named read-outs stand apart in the source and are kept apart here.
What was measured:
[1] = target: ligand binding domain of human FXR (Homo sapiens (Human), UniProt Q96RI1); assay: FXR ligand binding assay (LanthaScreen TR-FRET, SRC2-2 peptide recruitment); details: for pEC50: -log EC50, concentration required to produce 50% activation; for Emax: read-out: % Efficacy
[2] = target: human Farnesoid X receptor ligand-binding domain/Gal4 DNA binding domain chimera (Homo sapiens (Human), UniProt Q96RI1); assay: Cell-based assay of FXR activation (FXR-UAS-bla HEK 293T beta-lactamase reporter); details: cellular FXR beta-lactamase reporter assay; for Emax: HEK-293T, extent of activation relative to GW4064, read-out: % Efficacy; for EC50: FXR-UAS-bla HEK 293T cells, 16 h, pEC50 = -log EC50
Method in brief: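 Readout is cleavage of the CCF4 FRET substrate (409 nm excitation, blue 447 nm signal) by beta-lactamase, expressed under UAS control after a Gal4–human FXR LBD chimera is activated in HEK 293T cells. Compounds were added as 3-fold dilutions for 16 h at 37 °C in 2% charcoal-stripped FBS medium. Curves were fit to a 3-parameter logistic equation to give pEC50, with % activation relative to GW4064.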

[3] = extent of activation relative to GW4064

ligand binding domain of human FXR, sequence (Q96RI1 262-486): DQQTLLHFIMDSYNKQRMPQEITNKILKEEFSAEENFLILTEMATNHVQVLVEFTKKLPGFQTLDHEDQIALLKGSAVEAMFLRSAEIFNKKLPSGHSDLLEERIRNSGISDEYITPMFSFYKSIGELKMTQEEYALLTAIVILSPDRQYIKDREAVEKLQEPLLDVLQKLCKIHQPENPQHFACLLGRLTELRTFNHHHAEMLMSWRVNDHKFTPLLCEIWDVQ
human Farnesoid X receptor ligand-binding domain/Gal4 DNA binding domain chimera, sequence (Q96RI1 262-486, change not shown): as the sequence (Q96RI1 262-486) above
human Farnesoid X receptor ligand-binding domain/Gal4 DNA binding domain chimera, sequence (P04386 1-147 partner): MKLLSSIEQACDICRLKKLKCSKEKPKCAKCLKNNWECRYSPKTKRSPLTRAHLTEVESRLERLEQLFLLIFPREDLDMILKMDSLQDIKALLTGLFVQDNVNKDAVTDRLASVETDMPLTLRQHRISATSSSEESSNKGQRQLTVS

Structure (SMILES) | pEC50 [1] | Emax [1, 3] [%] | Emax [2] [%] | EC50 [2] [nM] | Emax [1] [%]
O=C(NS(=O)(=O)CC1CCOCC1)c1ccc(N2C(=O)[C@@H]3C[C@H]2C[C@H]3OCc2c(-c3c(Cl)cccc3Cl)noc2C2CC2)cc1F [Compound I-333, 4-((1S,4R,5R)-5-((5-cyclopropyl-3-(2,6-dichlorophenyl)isoxazol-4-yl)methoxy)-3-oxo-2-azabicyclo[2.2.1]heptan-2-yl)-2-fluoro-N-(((tetrahydro-2H-pyran-4-yl)methyl)sulfonyl)benzamide] | 8.8 | 158 | 112 | 0.501 | 
O=C(O)CCc1ccc(N2C(=O)[C@@H]3C[C@H]2C[C@H]3OCc2c(-c3c(Cl)cccc3Cl)noc2C2CC2)cc1 [Compound I-303, 3-{4-[(1S,4R,5R)-5-{[5-cyclopropyl-3-(2,6-dichlorophenyl)-1,2-oxazol-4-yl]methoxy}-3-oxo-2-azabicyclo[2.2.1]heptan-2-yl]phenyl}propanoic Acid] | 7.4 | 132 | 98 | 6.31 | 
O=C(O)c1ccc(N2C[C@@H]3C[C@H]2C[C@H]3OCc2c(-c3c(Cl)cccc3Cl)noc2C2CC2)c(F)c1F [Compound I-110, 4-((1S,4S,5R)-5-((5-cyclopropyl-3-(2,6-dichlorophenyl)isoxazol-4-yl)methoxy)-2-azabicyclo[2.2.1]heptan-2-yl)-2,3-difluorobenzoic acid] | 10 | 132 | 111 | 1 | 
O=C(NS(=O)(=O)CCC1CCOC1)c1ccc(N2C(=O)[C@@H]3C[C@H]2C[C@H]3OCc2c(-c3c(Cl)cccc3Cl)noc2C2CC2)cc1 (stereo partly drawn) [Compound I-342, 4-((1S,4R,5R)-5-((5-cyclopropyl-3-(2,6-dichlorophenyl)isoxazol-4-yl)methoxy)-3-oxo-2-azabicyclo[2.2.1]heptan-2-yl)-N-((2-(tetrahydrofuran-3-yl)ethyl)sulfonyl)benzamide] | 8.6 | 139 | 125 | 31.6 | 
Cc1cccc(Cl)c1-c1noc(C2CC2)c1CO[C@@H]1C[C@@H]2C[C@H]1CN2c1ccc(C(=O)NS(=O)(=O)C2CCOCC2)cc1 [Compound I-203, 4-((1S,4S,5R)-5-((3-(2-chloro-6-methylphenyl)-5-cyclopropylisoxazol-4-yl)methoxy)-2-azabicyclo[2.2.1]heptan-2-yl)-N-((tetrahydro-2H-pyran-4-yl)sulfonyl)benzamide] | 9 | 157 | 102 | 0.158 | 
CN1CCC(S(=O)(=O)NC(=O)c2ccc(N3C[C@@H]4C[C@H]3C[C@H]4OCc3c(-c4c(Cl)cccc4Cl)noc3C3CC3)cc2)CC1 [Compound I-187, 4-((1S,4S,5R)-5-((5-cyclopropyl-3-(2,6-dichlorophenyl)isoxazol-4-yl)methoxy)-2-azabicyclo[2.2.1]heptan-2-yl)-N-((1-methylpiperidin-4-yl)sulfonyl)benzamide] | 9.2 | 156 | 104 | 10 | 
CCOc1cc(C(=O)O)cc2sc(N3C[C@@H]4C[C@H]3C[C@H]4OCc3c(-c4c(Cl)cccc4Cl)noc3C3CC3)nc12 [Compound I-18, 2-[(1S,4S,5R)-5-{[5-cyclopropyl-3-(2,6-dichlorophenyl)-1,2-oxazol-4-yl]methoxy}-2-azabicyclo[2.2.1]heptan-2-yl]-4-ethoxy-1,3-benzothiazole-6-carboxylic acid] | 8.8 | 135 | 109 | 0.1 | 
O=C(NS(=O)(=O)C1CC1)c1ccc(N2C[C@@H]3C[C@H]2C[C@H]3OCc2c(C3CCC4(CC3)CC4)noc2C2CC2)c(F)c1 [Compound I-229, 4-((1S,4S,5R)-5-((5-cyclopropyl-3-(spiro[2.5]octan-6-yl)isoxazol-4-yl)methoxy)-2-azabicyclo[2.2.1]heptan-2-yl)-N-(cyclopropylsulfonyl)-3-fluorobenzamide] | 7.4 | 150 | 101 | 39.8 | 
O=C(O)c1ccc2nc(N3C[C@@H]4C[C@H]3C[C@@H]4OC(=O)c3c(-c4c(Cl)cccc4Cl)noc3C3CC3)sc2c1 [Compound I-35, 2-[(1S,4S,5S)-5-[5-cyclopropyl-3-(2,6-dichlorophenyl)-1,2-oxazole-4-carbonyloxy]-2-azabicyclo[2.2.1]heptan-2-yl]-1,3-benzothiazole-6-carboxylic Acid] | >4.5 |  | 19 | 631 | 
O=C(O)c1ccc(N2C[C@@H]3C[C@H]2C[C@H]3OCc2c(-c3c(F)cccc3Cl)noc2C2CC2)c(F)c1 [Compound I-119, 4-[(1S,4S,5R)-5-{[3-(2-chloro-6-fluorophenyl)-5-cyclopropyl-1,2-oxazol-4-yl]methoxy}-2-azabicyclo[2.2.1]heptan-2-yl]-3-fluorobenzoic Acid] | 8.7 | 145 | 104 | 0.631 | 
CCCCCCCCS(=O)(=O)NC(=O)c1ccc(N2C[C@@H]3C[C@H]2C[C@H]3OCc2c(-c3c(Cl)cccc3Cl)noc2C2CC2)c(F)c1 [Compound I-192, 4-((1S,4S,5R)-5-((5-cyclopropyl-3-(2,6-dichlorophenyl)isoxazol-4-yl)methoxy)-2-azabicyclo[2.2.1]heptan-2-yl)-3-fluoro-N-(octylsulfonyl)benzamide] | 7.9 | 152 | 106 | 0.2 | 
O=C(O)c1ccc(N2C[C@@H]3C[C@H]2C[C@H]3OCc2c(C3CCC4(CC3)CC4)noc2C2CC2)c(F)c1 [Compound I-126, 4-[(1S,4S,5R)-5-[(5-cyclopropyl-3-{spiro[2.5]octan-6-yl}-1,2-oxazol-4-yl)methoxy]-2-azabicyclo[2.2.1]heptan-2-yl]-3-fluorobenzoic Acid] |  |  | 106 | 39.8 | 114
O=C(NS(=O)(=O)C1CC1)c1ccc(N2C(=O)[C@@H]3C[C@H]2C[C@H]3OCc2c(-c3c(Cl)cccc3Cl)noc2C2CC2)cc1F [Compound I-331, 4-((1S,4R,5R)-5-((5-cyclopropyl-3-(2,6-chlorophenyl)isoxazol-4-yl)methoxy)-3-oxo-2-azabicyclo[2.2.1]heptan-2-yl)-N-(cyclopropylsulfonyl)-2-fluorobenzamiide] | 8.7 | 180 | 107 | 0.316 | 
O=C(c1ccc(N2C[C@@H]3C[C@H]2C[C@H]3OCc2c(-c3c(Cl)cccc3Cl)noc2C2CC2)cc1)C(F)(F)F [Compound I-142, 1-{4-[(1S,4S,5R)-5-{[5-cyclopropyl-3-(2,6-dichlorophenyl)-1,2-oxazol-4-yl]methoxy}-2-azabicyclo[2.2.1]heptan-2-yl]phenyl}-2,2,2-trifluoroethan-1-one] | 7.8 | 78 | 104 | 20 | 
CS(=O)(=O)CCNC(=O)c1ccc(N2C[C@@H]3C[C@H]2C[C@H]3OCc2c(-c3c(Cl)cccc3Cl)noc2C2CC2)cc1 [Compound I-169, 4-[(1S,4S,5R)-5-{[5-cyclopropyl-3-(2,6-dichlorophenyl)-1,2-oxazol-4-yl]methoxy}-2-azabicyclo[2.2.1]heptan-2-yl]-N-(2-methanesulfonylethyl)benzamide] | 8.4 | 160 | 106 | 1.58 | 

Reference: patent US10793568B2, “Hormone receptor modulators for treating metabolic conditions and disorders” (ARDELYX, INC., priority 2016, dated 2020)
